Reference: patent US20080051387A1, “TETRAHYDROPYRIDO[3,4-D]PYRIMIDINES AND RELATED ANALOGUES” (priority 2006, published 2008)

The compounds below were run against T1, chimeric human H3 receptor (Homo sapiens, UniProt Q9Y5N1) (assay: Chimeric human H3 receptor screening GTP binding assay (inhibition of histamine-stimulated GTP-gamma35S binding, Example 8)). Details: 1 h; assay described in Example 8; symbol "!" in column headed Ki; read-out: Ki ("!": percent inhibition of agonist-induced GTP-gammaS binding to H3).
T1 construct: rat Galpha-i2 (Gnai2, rat); made in house; host or cells: Sf9 insect cells (baculovirus); P2 membranes
T1 sequence (Q9Y5N1 with tags, fused parts or gaps): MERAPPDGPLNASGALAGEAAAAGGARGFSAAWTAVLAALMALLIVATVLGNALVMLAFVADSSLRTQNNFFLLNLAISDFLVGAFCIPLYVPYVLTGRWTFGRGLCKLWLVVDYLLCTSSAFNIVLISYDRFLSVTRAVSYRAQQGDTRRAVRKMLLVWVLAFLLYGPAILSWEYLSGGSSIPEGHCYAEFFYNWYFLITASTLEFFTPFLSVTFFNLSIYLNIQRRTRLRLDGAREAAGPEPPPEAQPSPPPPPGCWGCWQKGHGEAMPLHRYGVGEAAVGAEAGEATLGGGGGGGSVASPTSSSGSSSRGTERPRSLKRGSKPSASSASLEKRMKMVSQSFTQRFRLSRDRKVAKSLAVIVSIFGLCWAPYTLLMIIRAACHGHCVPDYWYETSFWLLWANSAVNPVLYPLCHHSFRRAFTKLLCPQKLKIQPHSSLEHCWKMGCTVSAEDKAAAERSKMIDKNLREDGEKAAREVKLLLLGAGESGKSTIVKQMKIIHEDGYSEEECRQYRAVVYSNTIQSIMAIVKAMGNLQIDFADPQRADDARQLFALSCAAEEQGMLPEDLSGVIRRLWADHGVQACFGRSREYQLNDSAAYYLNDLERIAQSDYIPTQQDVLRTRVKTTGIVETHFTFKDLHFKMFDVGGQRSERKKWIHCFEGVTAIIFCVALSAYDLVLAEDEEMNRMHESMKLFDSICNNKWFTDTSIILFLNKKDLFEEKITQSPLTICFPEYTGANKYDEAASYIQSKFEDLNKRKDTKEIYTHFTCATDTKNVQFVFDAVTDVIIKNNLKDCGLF
Assay type: biochemical
Experimental: This Example illustrates a representative screening assay for evaluating inhibition of histamine-stimulated GTP-gamma^35S binding. Such GTP binding activity can be used to identify H3 antagonists and inverse agonists. A compound analyzed in this assay is referred to herein as a “test compound,” and the initial identification of antagonists and inverse agonists is performed using a test compound concentration of 4 μM.
Four independent baculoviral stocks (one directing the expression of the chimeric human H3 receptor and three directing the expression of each of the three subunits of a heterotrimeric G-protein) are used to infect a culture of Sƒ9 cells as described above. P2 membranes are prepared as described above, and are resuspended by Dounce homogenization (tight pestle) in GTP binding assay buffer (50 mM Tris pH 7.4, 120 mM NaCl, 5 mM MgCl2, 2 mM EGTA, 1 mg/ml BSA, 0.2 mg/ml bacitracin, 0.02 mg/ml aprotinin, 0.01 mg/ml saponin, 10 μM GDP) and added to assay tubes at a concentration of 35 μg protein/reaction tube. Non-radiolabeled test compounds are added to separate reactions at a concentration of 4 μM along with 1 μM histamine (agonist). Reactions are initiated by the addition of 125 pM GTP-gamma^35S with a final assay volume of 0.20 ml.
After a 60-min incubation at room temperature, reactions are terminated by vacuum filtration over GF/C filters (pre-soaked in 50 mM Tris pH 7.4, 120 mM NaCl plus 0.1% BSA) followed by washing with ice-cold buffer (50 mM Tris pH 7.4, 120 mM NaCl). The amount of receptor-bound (and thereby membrane-bound) GTP-gamma^35S is determined by measuring the bound radioactivity, preferably by liquid scintillation spectrometry of the washed filters. Non-specific binding is determined using 10 uM GTP-gammaS and typically represents less than 5 percent of total binding. After subtraction of non-specific binding, data is expressed as percent inhibition of 1 μM histamine signal.
Neutral antagonists are those test compounds that reduce the histamine-stimulated GTP binding activity towards, but not below, baseline levels. In contrast, in the absence of added histamine, inverse agonists reduce the GTP binding activity of the receptor-containing membranes below baseline. Any test compound that elevates GTP binding activity above baseline in the absence of added histamine in this assay is defined as having agonist activity.

Inhibition at 4 µM, ≥ 90%:
O=C(c1ccc(Cl)cc1)N1CCc2cnc(N3CCN(C4CCC4)CC3)nc2CC1 [Compound 387, 7-(4-chlorobenzoyl)-2-(4-cyclobutylpiperazin-1-yl)-6,7,8,9-tetrahydro-5H-pyrimido[4,5-d]azepine]
COc1cc(Br)c(C(=O)N2CCc3cnc(N4CCN(C5CCC5)CC4)nc3CC2)cc1OC [Compound 429, 7-(2-bromo-4,5-dimethoxybenzoyl)-2-(4-cyclobutylpiperazin-1-yl)-6,7,8,9-tetrahydro-5H-pyrimido[4,5-d]azepine]
O=C(c1cccnc1Oc1ccccc1)N1CCc2cnc(N3CCN(C4CCC4)CC3)nc2CC1 [Compound 495, 2-(4-cyclobutylpiperazin-1-yl)-7-[(2-phenoxypyridin-3-yl)carbonyl]-6,7,8,9-tetrahydro-5H-pyrimido[4,5-d]azepine]
O=C(c1c(F)cccc1C(F)(F)F)N1CCc2cnc(N3CCN(C4CCC4)CC3)nc2CC1 [Compound 434, 2-(4-cyclobutylpiperazin-1-yl)-7-[2-fluoro-6-(trifluoromethyl)benzoyl]-6,7,8,9-tetrahydro-5H-pyrimido[4,5-d]azepine]
O=C(c1cc2ccccc2o1)N1CCc2cnc(N3CCN(C4CCC4)CC3)nc2CC1 [Compound 473, 7-(1-benzofuran-2-ylcarbonyl)-2-(4-cyclobutylpiperazin-1-yl)-6,7,8,9-tetrahydro-5H-pyrimido[4,5-d]azepine]
O=C(c1ccccc1Oc1ccccc1)N1CCc2cnc(N3CCN(C4CCC4)CC3)nc2CC1 [Compound 422, 2-(4-cyclobutylpiperazin-1-yl)-7-(2-phenoxybenzoyl)-6,7,8,9-tetrahydro-5H-pyrimido[4,5-d]azepine]
O=C(/C=C/c1cccc2ccccc12)N1CCc2cnc(N3CCN(C4CCC4)CC3)nc2CC1 [Compound 578, 2-(4-cyclobutylpiperazin-1-yl)-7-[(2E)-3-(1-naphthyl)prop-2-enoyl]-6,7,8,9-tetrahydro-5H-pyrimido[4,5-d]azepine]
Cc1cc(C(=O)N2CCc3cnc(N4CCN(C5CCC5)CC4)nc3CC2)cc(Cl)n1 [Compound 484, 7-(2-chloro-6-methylisonicotinoyl)-2-(4-cyclobutylpiperazin-1-yl)-6,7,8,9-tetrahydro-5H-pyrimido[4,5-d]azepine]
O=C(c1c(Cl)cccc1Cl)N1CCc2cnc(N3CCN(C4CCC4)CC3)nc2CC1 [Compound 435, 2-(4-cyclobutylpiperazin-1-yl)-7-(2,6-dichlorobenzoyl)-6,7,8,9-tetrahydro-5H-pyrimido[4,5-d]azepine]

Same assay, conditions: 1 h; assay of Example 8; symbol "!" in column headed Ki; read-out: percent inhibition of agonist-induced GTP-gammaS binding to H3

Inhibition at 4 µM, ≥ 90%:
O=C(CC1CCCC1)N1CCc2cnc(N3CCN(C4CCC4)CC3)nc2CC1 [Compound 210, 2-(4-cyclobutylpiperazin-1-yl)-7-(cyclopentylacetyl)-6,7,8,9-tetrahydro-5H-pyrimido[4,5-d]azepine]
CC(C)CCN1CCc2cnc(N3CCN(C4CCC4)CC3)nc2CC1 [Compound 246, 2-(4-cyclobutylpiperazin-1-yl)-7-(3-methylbutyl)-6,7,8,9-tetrahydro-5H-pyrimido[4,5-d]azepine]
c1ccc(CN2CCc3cnc(N4CCN(C5CCC5)CC4)nc3CC2)cc1 [Compound 229, 7-benzyl-2-(4-cyclobutylpiperazin-1-yl)-6,7,8,9-tetrahydro-5H-pyrimido[4,5-d]azepine]
O=C(Cc1ccccc1Oc1ccccc1)N1CCc2cnc(N3CCN(C4CCC4)CC3)nc2CC1 [Compound 304, 2-(4-cyclobutylpiperazin-1-yl)-7-[(2-phenoxyphenyl)acetyl]-6,7,8,9-tetrahydro-5H-pyrimido[4,5-d]azepine]
Cc1c(F)cccc1CN1CCc2cnc(N3CCN(C4CCC4)CC3)nc2CC1 [Compound 264, 2-(4-cyclobutylpiperazin-1-yl)-7-(3-fluoro-2-methylbenzyl)-6,7,8,9-tetrahydro-5H-pyrimido[4,5-d]azepine]
CC(C)(Oc1ccc(Cl)cc1)C(=O)N1CCc2cnc(N3CCN(C4CCC4)CC3)nc2CC1 [Compound 337, 7-[2-(4-chlorophenoxy)-2-methylpropanoyl]-2-(4-cyclobutylpiperazin-1-yl)-6,7,8,9-tetrahydro-5H-pyrimido[4,5-d]azepine]
CC(C)(C)c1ccc(C(=O)N2CCc3cnc(N4CCN(C5CCC5)CC4)nc3CC2)cc1 [Compound 364, 7-(4-tert-butylbenzoyl)-2-(4-cyclobutylpiperazin-1-yl)-6,7,8,9-tetrahydro-5H-pyrimido[4,5-d]azepine]
CC(Oc1ccccc1Cl)C(=O)N1CCc2cnc(N3CCN(C4CCC4)CC3)nc2CC1 (centres unmarked) [Compound 344, 7-[2-(2-chlorophenoxy)propanoyl]-2-(4-cyclobutylpiperazin-1-yl)-6,7,8,9-tetrahydro-5H-pyrimido[4,5-d]azepine]
CNC(=O)c1ccc(N2CCc3cnc(N4CCN(C5CCC5)CC4)nc3CC2)nc1 [Compound 186, 6-[2-(4-cyclobutylpiperazin-1-yl)-5,6,8,9-tetrahydro-7H-pyrimido[4,5-d]azepin-7-yl]-N-methylnicotinamide]
O=C(c1ccc2ccccc2c1)N1CCc2cnc(N3CCN(C4CCC4)CC3)nc2CC1 [Compound 361, 2-(4-cyclobutylpiperazin-1-yl)-7-(2-naphthoyl)-6,7,8,9-tetrahydro-5H-pyrimido[4,5-d]azepine]
COc1ccc(CC(=O)N2CCc3cnc(N4CCN(C5CCC5)CC4)nc3CC2)cc1 [Compound 274, 2-(4-cyclobutylpiperazin-1-yl)-7-[(4-methoxyphenyl)acetyl]-6,7,8,9-tetrahydro-5H-pyrimido[4,5-d]azepine]

Same assay, conditions: symbol ! in Ki; test compound 4 μM, 1 μM histamine; read-out: percent inhibition of agonist-induced GTP-gammaS binding to H3

Inhibition at 4 µM, ≥ 90%:
CCN1CCc2ncnc(N3CCN(C4CCC4)CC3)c2CC1 [Compound 160, 4-(4-cyclobutylpiperazin-1-yl)-7-ethyl-6,7,8,9-tetrahydro-5H-pyrimido[4,5-d]azepine]
c1nc2c(c(N3CCN(C4CCC4)CC3)n1)CCN(CC1CCOC1)CC2 (centres unmarked) [Compound 171, 4-(4-cyclobutylpiperazin-1-yl)-7-(tetrahydrofuran-3-ylmethyl)-6,7,8,9-tetrahydro-5H-pyrimido[4,5-d]azepine]
c1ccc(CN2CCc3c(ncnc3N3CCN(CCCN4CCCC4)CC3)C2)cc1 [Compound 19, 7-benzyl-4-[4-(3-pyrrolidin-1-ylpropyl)piperazin-1-yl]-5,6,7,8-tetrahydropyrido[3,4-d]pyrimidine]
COc1cccc(CN2CCc3nc(N4CCN(C5CCC5)CC4)ncc3C2)c1OC [Compound 640, 2-(4-cyclobutylpiperazin-1-yl)-6-(2,3-dimethoxybenzyl)-5,6,7,8-tetrahydropyrido[4,3-d]pyrimidine]
CC(C)CN1CCc2c(ncnc2N2CCN(C3CCC3)CC2)C1 [Compound 86, 4-(4-cyclobutylpiperazin-1-yl)-7-isobutyl-5,6,7,8-tetrahydropyrido[3,4-d]pyrimidine]
c1cncc(CN2CCc3nc(N4CCN(C5CCC5)CC4)ncc3C2)c1 [Compound 620, 2-(4-cyclobutylpiperazin-1-yl)-6-(pyridin-3-ylmethyl)-5,6,7,8-tetrahydropyrido[4,3-d]pyrimidine]
O=C(c1ccc(F)cc1)N1CCc2c(ncnc2N2CCN(C3CCC3)CC2)C1 [Compound 30, 4-(4-cyclobutylpiperazin-1-yl)-7-(4-fluorobenzoyl)-5,6,7,8-tetrahydropyrido[3,4-d]pyrimidine]
COc1ccccc1C(C)N1CCc2c(ncnc2N2CCN(C3CCC3)CC2)C1 (centres unmarked) [Compound 113, 4-(4-cyclobutylpiperazin-1-yl)-7-[1-(2-methoxyphenyl)ethyl]-5,6,7,8-tetrahydropyrido[3,4-d]pyrimidine]

Same assay, conditions: test compound 4 μM, 1 μM histamine; read-out: percent inhibition of agonist-induced GTP-gammaS binding to H3

Inhibition at 4 µM, ≥ 90%:
O=C(c1ccc(F)cc1)N1CCc2cnc(N3CCN(C4CCC4)CC3)nc2CC1 [Compound 10, [2-(4-Cyclobutyl-piperazin-1-yl)-5,6,8,9-tetrahydro-pyrimido[4.5-d]azepin-7-yl]-(4-fluoro-phenyl)-methanone]
